Data set [1] can be described thus: Rat plasma pharmacokinetics of total radioactivity after [^14C]-Compound 1. It counts as in vivo, male Sprague-Dawley rats. As for the experimental part:
A preliminary rat metabolism study was conducted with radiolabeled Compound 1. The compound was labeled with [^14C] in the C-8 position of the guanine moiety. The objectives of the study were to determine, 1) the plasma pharmacokinetics of total radioactivity, 2) the time-course of total radioactivity and the amount of 2′-C-methyl guanosine-5′-TP in liver, 3) the major route of excretion, and 4) the metabolic profile in excreta, liver, and plasma.
Isotopically diluted [^14C]-Compound 1 was administered intravenously to male Sprague-Dawley rats at 50 mg/kg or by oral gavage at 100 mg/kg.
The plasma concentration-time data for total radioactivity was analyzed using Microsoft® Office Excel 2003 to obtain the area under the concentration-time curve (AUC). AUC0-24 (area under the concentration-time curve from 0 to 24 h after dosing) was calculated using the linear trapezoidal rule and nominal sampling times. For the IV dose group, concentration at time zero was extrapolated from the concentration data for the first two time points. The maximum (peak) plasma concentrations (Cmax) and the time to peak concentrations (tmax) were the observed values. Descriptive statistics were prepared in Excel.
Radioanalyses of plasma samples were conducted. The plasma concentration data for total radioactivity expressed as μg equivalents/mL are summarized below: […]

The nature of data set [2]: Cytotoxicity (MTS assay), 184R-D2 cells. Conditions: human, 184R-D2 cells (S282T), 184R-D2 (S282T), N = 3. It counts as cell-based. The procedure: (§1) Cells were plated and treated with inhibitors as described above.
Another data set relates to CYP3A4. Put plainly: Effect of CYP3A4 inhibitors (ketoconazole, ritonavir) on metabolic stability in rat liver microsomes. It counts as in vitro ADME. Particulars: rat microsomes 1 mg/mL, 60 min, 10 μM, NADPH. As for the experimental part:
Incubations were conducted in a final volume of 0.1 mL per incubation time point. […] Final solvent (DMSO or methanol) concentration was maintained at 0.2%. Reactions were initiated by the addition of an NADPH regenerating system (1.3 mM NADP^+, 3.3 mM glucose-6-phosphate, 0.4 U/ml glucose-6-phosphate dehydrogenase, and 3.3 mM MgCl2, final concentrations). Incubations with no inhibitor served as control. Reactions were terminated at 30 min (monkey) or 60 min (rat and human) by the addition of 0.2 mL of stop solution (acetonitrile). The samples were vortex-mixed for 30 sec and then centrifuged at 10,000×g for 10 min. The supernatant was dried using a Labconco CentriVap concentrator and the dry residue reconstituted in water, transferred to an HPLC glass vial and analyzed by HPLC-UV method 1 (described above).
Because Compound 1 is rapidly metabolized in monkey liver microsomes, incubation conditions were adjusted by reducing protein content to 0.5 mg/mL and incubation time to 30 min. Incubation conditions for rat and human were unchanged; protein was 1 mg/mL and incubation time was 60 min.
(In general: Liver microsomes are a subcellular fraction often used to study metabolism.)

Data set [3] can be described thus: Cytotoxicity assay (MTS), Zluc cells. It counts as cell-based, human. Particulars: human; Zluc cells, 3 days (Luciferase Assay columns). The procedure: The cytotoxicity assay measures the viability of cells after treatment with a test compound for 3 days in either GS4.1 cells or Zluc cells. […] The cytotoxicity assay is summarized as follows. Ninety-six-well tissue culture plates were seeded with GS4.1 or Zluc cells. Antiviral compound solutions were made up freshly in medium as 2×-concentrated stocks. Eight additional 3-fold drug dilutions were prepared from these stocks in medium for a total of 9 dilutions. At least four hours after the cells were seeded, drug treatment was initiated by adding one volume of each 2×-concentrated drug dilution to one volume of cells/medium in the tissue culture plates. Cells were then incubated for 3 days at 37° C./5% CO2. After 3 days of treatment, the CellTiter 96® Aqueous One Solution cell proliferation assay (Promega) was performed by adding the MTS solution to each well. The plates were then incubated at 37° C./5% CO2 for 3.5 hours. Plates were then read in a Victor^3V 1420 multilabel counter (Perkin Elmer) and CC50 concentrations were determined using Microsoft Excel and XLfit 4.1 software.

The next data set deals with CYP2D6 (Homo sapiens, UniProt P10635). Put plainly: Incubation with human recombinant CYP450 supersomes, 2D6. The class given is in vitro ADME. Particulars: CYP450 2D6 supersomes, 60 min, 10 μM, average of two experiments. As for the experimental part: (§2) Supersomes—Incubations were conducted in a final volume of 0.1 mL reaction buffer (50-100 mM potassium phosphate, pH 7.4 or 100 mM Tris-HCL, pH 7.4) according to protocol provided with each CYP450 supersome. Each reaction contained […] of CYP450 supersome, 1.3 mM NADP^+, 3.3 mM glucose-6-phosphate, 0.4 U/mL glucose-6-phosphate dehydrogenase, 3.3 mM MgCl2 and 10 μM Compound 1. Following incubation for 60 min at 37° C., 100 μL of stop solution (acetonitrile:methanol; 1:1) was added and samples centrifuged for 10 min at 10,000×g. The supernatant was then dried and reconstituted in 10 mM potassium phosphate, pH 5, further transferred to an HPLC glass vial and analyzed by HPLC-UV (described above).
CYP2D6, sequence (P10635 whole entry): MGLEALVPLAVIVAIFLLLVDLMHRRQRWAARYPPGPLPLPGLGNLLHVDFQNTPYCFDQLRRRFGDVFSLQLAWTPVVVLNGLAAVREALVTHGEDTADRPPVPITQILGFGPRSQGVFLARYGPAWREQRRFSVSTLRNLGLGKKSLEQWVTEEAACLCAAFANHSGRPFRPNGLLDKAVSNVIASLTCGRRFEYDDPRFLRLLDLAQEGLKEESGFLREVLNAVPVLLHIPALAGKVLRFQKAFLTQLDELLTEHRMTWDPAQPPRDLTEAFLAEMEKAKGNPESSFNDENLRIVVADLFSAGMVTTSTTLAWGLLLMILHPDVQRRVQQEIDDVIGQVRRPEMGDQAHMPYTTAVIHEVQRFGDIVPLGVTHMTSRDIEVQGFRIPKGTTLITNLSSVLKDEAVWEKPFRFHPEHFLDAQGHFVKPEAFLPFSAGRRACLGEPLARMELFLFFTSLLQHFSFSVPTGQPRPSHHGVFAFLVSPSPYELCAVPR

The next data set relates to GS4.1 cells. Nature of the data set: Cytotoxicity (MTS assay), GS4.1 cells, Example 18. It counts as cell-based, human. Particulars: wild-type or S282T replicon cells treated with up to 100 μM. The procedure: as §1
The nature of data set [4]: Cytotoxicity (MTS assay), GS4.1 cells, Example 18. It counts as cell-based, human. Particulars: human, GS4.1 cells (wild-type); GS4.1 (wild-type), MTS assay, N = 3. As for the experimental part:
as §1
(In general: Tetrazolium dyes change colour on reduction, which living cells bring about.)

In the next data set the target is CYP2C19 (Homo sapiens, UniProt P33261). Nature of the data set: Incubation with human recombinant CYP450 supersomes, 2C19. It counts as in vitro ADME. Particulars: CYP450 2C19 supersomes, 60 min, 10 μM, average of two experiments. As for the experimental part: as §2
CYP2C19, sequence (P33261 whole entry): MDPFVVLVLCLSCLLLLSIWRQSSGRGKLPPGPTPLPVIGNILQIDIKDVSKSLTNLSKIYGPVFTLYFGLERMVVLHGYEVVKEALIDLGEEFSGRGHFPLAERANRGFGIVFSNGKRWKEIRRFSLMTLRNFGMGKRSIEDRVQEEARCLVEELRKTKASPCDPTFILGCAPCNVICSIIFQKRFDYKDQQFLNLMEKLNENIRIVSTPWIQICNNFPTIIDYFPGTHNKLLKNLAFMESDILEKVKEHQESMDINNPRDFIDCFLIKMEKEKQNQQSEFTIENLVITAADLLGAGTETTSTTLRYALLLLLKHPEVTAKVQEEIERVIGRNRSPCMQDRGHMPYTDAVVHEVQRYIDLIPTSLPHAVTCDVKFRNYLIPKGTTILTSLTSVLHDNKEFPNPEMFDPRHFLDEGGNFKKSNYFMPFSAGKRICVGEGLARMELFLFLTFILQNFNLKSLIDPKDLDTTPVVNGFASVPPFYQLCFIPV
The target in a further data set is CYP2E1 (Homo sapiens, UniProt P05181). Put plainly: Incubation with human recombinant CYP450 supersomes, 2E1. The class given is in vitro ADME. Particulars: CYP450 2E1 supersomes, 60 min, 10 μM, average of two experiments. As for the experimental part: as §2
CYP2E1, sequence (P05181 whole entry): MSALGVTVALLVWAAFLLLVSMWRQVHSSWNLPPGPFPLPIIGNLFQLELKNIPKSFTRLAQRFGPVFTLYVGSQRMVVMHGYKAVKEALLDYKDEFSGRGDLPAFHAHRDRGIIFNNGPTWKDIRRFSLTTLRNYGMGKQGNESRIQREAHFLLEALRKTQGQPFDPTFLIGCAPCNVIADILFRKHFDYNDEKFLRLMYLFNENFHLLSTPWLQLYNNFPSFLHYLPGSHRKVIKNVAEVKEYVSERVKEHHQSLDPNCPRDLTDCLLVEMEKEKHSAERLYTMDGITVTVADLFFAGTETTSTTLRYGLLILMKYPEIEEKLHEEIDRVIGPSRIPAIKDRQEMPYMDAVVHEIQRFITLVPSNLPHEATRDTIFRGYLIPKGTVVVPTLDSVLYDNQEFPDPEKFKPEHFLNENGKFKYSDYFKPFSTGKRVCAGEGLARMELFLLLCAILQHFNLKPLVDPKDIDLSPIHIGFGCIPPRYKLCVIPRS
In data set [5] the test system is HCV genotype 1b replicon (GS4.1 cells). Put plainly: In vitro combination of Compound 1 and ribavirin on HCV replicon (NS4A ELISA; MacSynergy II, CombiTool, CalcuSyn). The class given is cell-based. Conditions: Hepatitis C virus, 72 h, single-drug titration experiments, three days. The procedure:
This setup was run in duplicate in each 96-well plate.
Cells were incubated with inhibitors for three days at 37° C./5% CO2.
After three days of drug treatment, media was removed from the plates via gentle tapping and the cells were fixed to the plates with 100 μL/well of 1:1 acetone:methanol.
After one minute of incubation at room temperature, plates were washed three times with 100 μL/well of ELISA wash solution and then blocked with 150 μL/well of 10% FBS-TNE.
After a one hour incubation period at 37° C., each plate was washed three times with 100 μL/well of ELISA wash solution. Color development was then initiated with 100 μL/well of OPD solution.
After a 30 minute incubation period in the dark at room temperature, reactions were stopped by adding 100 μL of 2NH2SO4 to each well.
The absorbance was measured at 490 nm on a Victor^3 V 1420 multilabel counter (Perkin Elmer).

In general, CC50 refers to the concentration at which the toxic effect on the cells reaches its halfway point. As usually defined, the EC50 is the concentration that produces a half-maximal response.

On to `CC(C)(CO)C(=O)SCCOP(=O)(NCc1ccccc1)OC[C@H]1O[C@@H](n2cnc3c(=O)[nH]c(N)nc32)[C@](C)(O)[C@@H]1O` (mixture of isomers) [Compound 1, 3-hydroxy-2,2-dimethyl-thiopropionic acid S-(2-{[(2R,3R,4R,5R)-5-(2-amino-6-oxo-1,6-dihydro-purin-9-yl)-3,4-dihydroxy-4-methyl-tetrahydro-furan-2-ylmethoxy]-benzylamino-phosphoryloxy}-ethyl) ester], for which the “AUC0-24 of plasma total radioactivity” value in [1] (IV 50 mg/kg [^14C]-Compound 1) turned out to be 36.0 hr.μg equivalent/mL; in data set [1] (PO 100 mg/kg [^14C]-Compound 1), 15.4 hr.μg equivalent/mL. In addition, the CC50 at 3 days in [2], in data set [3] and in data set [4] was above 100 µM in each case. For the same compound, the “% Residual Compound 1” value in the data set on CYP3A4 (Ketoconazole 0.1 μM) came out at 83%; with CYP3A4 (Ketoconazole 1 μM), 120%; in the data set with CYP3A4 (Ritonavir 0.1 μM) it was 101%; in the data set on CYP3A4 (Ritonavir 1 μM), 123%; in the data set on CYP3A4 (inhibitor 0 μM), 86%; at CYP2D6, 102%. The results for the “% Residual Compound 1” value on CYP2C19 and at CYP2E1 were 111% and 100%, respectively. Further, the “in vitro cytotoxicity (MTS)” value with GS4.1 cells is listed as “no evidence of in vitro cytotoxicity”. Moreover, the EC50 in [5] is 0.4 ± 0.09 µM.

(Values after patent US20100003217A1, “Compounds and Pharmaceutical Compositions for the Treatment of Viral Infections” (priority 2008, published 2010).)
